How the values were obtained:
[1] = molecular target: acyl-CoA: cholesterol acyltransferase (ACAT); assay: In vitro ACAT inhibition: radiolabeled cholesterol oleate formed from radiolabeled oleic acid in rabbit intestinal microsomes; format: biochemical; conditions: tissue preparation containing rabbit intestinal microsomes; concentration required to inhibit the activity of the enzyme by 50%
Description: The ability of representative compounds of the present invention to inhibit ACAT was measured using an in vitro test more fully described in F. J. Field and R. G. Salone, Biochemica et Biophysica 712:557-570 (1982). The test assesses the ability of a test compound to inhibit the acylation of cholesterol by oleic acid by measuring the amount of radiolabeled cholesterol oleate formed from radiolabeled oleic acid in a tissue preparation containing rabbit intestinal microsomes.
The data appear in Table 1 where they are expressed as ICso values; i.e., the concentration of test compound required to inhibit the activity of the enzyme by 50%.

male Sprague-Dawley rats = assay: In vivo screen APCC: blood cholesterol in rats fed PCC diet overnight; conditions: blood cholesterol versus vehicle (CMC/Tween); dosed at 4 PM, PCC diet with 1 % or 0.5% cholic acid overnight, sacrificed at 8 AM; dose not given
Text: In one in vivo screen designated APCC, male Sprague-Dawley rats (200 to 225 g) were randomly divided into treatment groups and dosed at 4 PM with either vehicle (CMC/Tween) or suspensions of compounds in vehicle. The normal chow diet was then replaced with the PCC diet with either 1 % or 0.5% cholic acid, as indicated. The rats consumed this diet ad libitum during the night and were sacrificed at 8 AM to obtain blood samples for cholesterol analysis using standard procedures. Statistical differences between mean cholesterol values for the same vehicle were determined using analysis of variance followed by Fisher's least significant test.

SMILES: CC(C)c1cccc(C(C)C)c1NC(=O)CC(=O)N(Cc1ccccc1)Cc1ccccc1 [N'-[2,6-bis(1-methylethyl)-phenyl]-N,N-bis(phenylmethyl)-propanediamide]
- IC50 [1]: 13 nM
- % Change (mg/dl) (male Sprague-Dawley rats): -42%

SMILES: CC(C)c1cccc(C(C)C)c1NC(=O)CC(=O)N(C(C)C)C(c1ccccc1)c1ccccc1 [N'-[2,6-bis(1-methylethyl)-phenyl]-N-(diphenylmethyl)-N-(1-methylethyl)propanediamide]
- IC50 [1]: 20 nM
- % Change (mg/dl) (male Sprague-Dawley rats): -41%

SMILES: CC(C)c1cccc(C(C)C)c1NC(=O)CC(=O)NCC(c1ccccc1)c1ccccc1 [N-[2,6-Bis(1-methylethyl)phenyl]-N'-(2,2-diphenylethyl)propanediamide]
- IC50 [1]: 770 nM

SMILES: CC(C)c1cccc(C(C)C)c1NC(=O)CC(=O)NC(c1ccccc1)c1ccccc1 [N-[2,6-bis(1-methylethyl)-phenyl-N'-(diphenylmethyl)-propanediamide]
- IC50 [1]: 490 nM
- % Change (mg/dl) (male Sprague-Dawley rats): -20%

SMILES: CC(C)c1cccc(C(C)C)c1NC(=O)CC(=O)NCC1(c2ccccc2)CCCC1 [N-[2,6-bis(1-methylethyl)-phenyl]-N'-(1-phenylcyclo-pentyl)methylpropanediamide]
- IC50 [1]: 990 nM
- % Change (mg/dl) (male Sprague-Dawley rats): +7%

Reference: patent EP0433662A2, “Acat inhibitors” (WARNER-LAMBERT COMPANY, priority 1989, dated 1991)
